Measurements reported in US20180353460A1, “METHODS OF TREATING UROLOGICAL DISORDERS USING SARMs” (priority 2014, published 2018).
Where “and” joins values, the source holds several entries; their conditions need not be identical. Equal values may be shown once.

Key:
levator ani muscle = assay: Levator ani muscle weight in castrated rats treated subcutaneously for 14 days; format: in vivo, rat; details: castrated Sprague Dawley rats, subcutaneous, 3 mg/day
Text: At sacrifice, organs were weighed and expressed as raw organ weights. Values are expressed as average±S.D. Increased size and strength of pelvic floor muscles is one mechanism by which SARMs are believed to affect UI.
At sacrifice, organs were weighed and expressed as raw organ weights. Values are expressed as average±S.D.

[1] = test system: postmenopausal women with SUI; assay: Proof of concept clinical study: quality of life questionnaires (FSFI, UDI-6, IIQ-7, MESA, PGI-I, PGI-S); format: in vivo, human
Text: Secondary Objectives: • To describe the effect of 12 weeks of treatment of Compound IX on the number of voids/day as assessed by the 3 days voiding diary. […] See Tables 2 (individual subject data) and Tables 4-6 (mean pad weight data for sites 1, 2, and 3, respectively), and FIG. 17 for mean and median reductions in pad weights from baseline to week 12 (across all sites). • To describe the effect of 12 weeks of treatment of Compound IX on SUI as assessed by the Urethral Pressure Profile (UPP). The UPP assessment was removed from the protocol because it is invasive and not standard of care. […] See summary data for all subjects across the 3 sites reported in Table 7 and FIGS. 13A and 13B. • Described is the effect of 12 weeks of treatment of Compound IX on subject reported impression of stress urinary incontinence severity as assessed by the Patient Global Impression of Severity Scale (PGI-S). See summary data for all subjects across the 3 sites reported in FIG. 12A. • Described is the effect of 12 weeks of treatment of Compound IX on subject reported impression of improvement as assessed by the Patient Global Impression of Improvement Scale (PGI-I). See summary data for all subjects across the 3 sites reported in FIG. 12B. • Described is the effect of 12 weeks of treatment of Compound IX on subject reported urogenital distress as assessed by the Urinary Distress Inventory Questionnaire (UDI-6). See summary data for all subjects across of 3 sites reported in Table 7 and FIG. 12C. • Described is the effect of 12 weeks of treatment of Compound IX on subject reported impact of urinary incontinence on daily life as assessed by the Incontinence Impact Questionnaire (IIQ-7). See summary data for all subjects across the 3 sites reported in Table 7 and FIG. 12D. • Described is the effect of 12 weeks of treatment of Compound IX on subject reported sexual function as indicated on the completion of the Female Sexual Function Index Questionnaire (FSFI). See summary data for all subjects across the 3 sites reported in Table 7 and FIG. 15. • Described is the effect of 12 weeks of treatment of Compound IX on pelvic floor muscles as measured by MRI. See FIG. 11 wherein the pelvic MRI for one representative subject on trial is reported at baseline and at 12 weeks, FIG. 16 wherein the pelvic MRI's for three representative subjects on trial are reported at baseline and at 12 weeks, and Example 19 and Table 13 which provide individual measurements of levator ani thickness, inner and outer diameter of the urethra, and endometrial thickness, and mean changes in the same from baseline to week 12.
The data were collected from 18 patients at 12 weeks. Data collection/analysis for additional secondary endpoints are ongoing. Women reported improved quality of life measurements in each of the five instruments collected in the study, including the Patient Global Impression of Improvement (PGI-I) and Female Sexual Function Index (FSFI). FIG. 15 provides the FSFI overall scores from baseline to 16 weeks.
The QOL measurements are described in greater detail above and are well-known and validated measures.

## C[C@](O)(COc1ccc(C#N)cc1)C(=O)Nc1ccc(C#N)c(C(F)(F)F)c1 [Compound IX, (S)—N-(4-Cyano-3-(trifluoromethyl)phenyl)-3-(4-cyanophenoxy)-2-hydroxy-2-methylpropanamide]
Levator ani muscle
  levator ani muscle weight: elicits hypertrophy of the levator ani muscle
[1]; 12 weeks, 12 patients moderate or severe at baseline, none severe at 12 weeks
  patients reporting moderate symptoms on PGI-S: 3 patients
[1]; 18 patients, baseline 56
  MESA Urge median score at 12 weeks: 22
[1]; 18 patients, baseline 79.5
  MESA Stress median score at 12 weeks: 44.5
[1]; scale range 0-100, baseline 45.83
  UDI-6 median score at 12 weeks: 31.25
[1]; scale range 0-100, baseline 50.00
  IIQ-7 median score at 12 weeks: 11.90
[1]; scale range 2-36, baseline 15.90
  FSFI median score at 12 weeks: 28.05 and 28.00 and 28.20
[1]; week 12
  patients with improved PGI-I scores: 17 of 18
